Laboratory results as given in the supplement of paper PMC11451515.

System: P12-Ichikawa
Test: cell viability relative to DMSO control; higher = less cytotoxic
Settings: 48 h
Method in brief: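 Viability is expressed as a percentage of DMSO wells within each plate, and cell-free wells serve as background. Seeding densities in the 1536-well plates (5 μl) were 500 cells/well for NOMO1 or SEM leukemia cells and 1000 cells/well for P12-Ichikawa. Each line was adapted for at least four passages in each medium. Library compounds in DMSO were pin-dosed at 47 μM to 0.79 nM (11 points, threefold), and CellTiter-Glo One luminescence was read after 48 h at 37°C.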

[1] = HPLM + 10% dialyzed FBS, 0.000781 µM
[2] = HPLM + 10% dialyzed FBS, 0.00234 µM
[3] = HPLM + 10% dialyzed FBS, 0.00702 µM
[4] = HPLM + 10% dialyzed FBS, 0.0211 µM
[5] = HPLM + 10% dialyzed FBS, 0.0632 µM
[6] = HPLM + 10% dialyzed FBS, 0.19 µM
[7] = HPLM + 10% dialyzed FBS, 0.569 µM
[8] = HPLM + 10% dialyzed FBS, 1.71 µM
[9] = HPLM + 10% dialyzed FBS, 5.12 µM
[10] = HPLM + 10% dialyzed FBS, 15.4 µM
[11] = HPLM + 10% dialyzed FBS, 46.1 µM
[12] = RPMI 5 mM glucose + 10% FBS, 0.000781 µM
[13] = RPMI 5 mM glucose + 10% FBS, 0.00234 µM
[14] = RPMI 5 mM glucose + 10% FBS, 0.00702 µM
[15] = RPMI 5 mM glucose + 10% FBS, 0.0211 µM
[16] = RPMI 5 mM glucose + 10% FBS, 0.0632 µM
[17] = RPMI 5 mM glucose + 10% FBS, 0.19 µM
[18] = RPMI 5 mM glucose + 10% FBS, 0.569 µM
[19] = RPMI 5 mM glucose + 10% FBS, 1.71 µM
[20] = RPMI 5 mM glucose + 10% FBS, 5.12 µM
[21] = RPMI 5 mM glucose + 10% FBS, 15.4 µM
[22] = RPMI 5 mM glucose + 10% FBS, 46.1 µM
[23] = RPMI 5 mM glucose + 10% dialyzed FBS, 0.000781 µM
[24] = RPMI 5 mM glucose + 10% dialyzed FBS, 0.00234 µM
[25] = RPMI 5 mM glucose + 10% dialyzed FBS, 0.00702 µM
[26] = RPMI 5 mM glucose + 10% dialyzed FBS, 0.0211 µM
[27] = RPMI 5 mM glucose + 10% dialyzed FBS, 0.0632 µM
[28] = RPMI 5 mM glucose + 10% dialyzed FBS, 0.19 µM
[29] = RPMI 5 mM glucose + 10% dialyzed FBS, 0.569 µM
[30] = RPMI 5 mM glucose + 10% dialyzed FBS, 1.71 µM
[31] = RPMI 5 mM glucose + 10% dialyzed FBS, 5.12 µM
[32] = RPMI 5 mM glucose + 10% dialyzed FBS, 15.4 µM
[33] = RPMI 5 mM glucose + 10% dialyzed FBS, 46.1 µM

SMILES | cell viability [1] | cell viability [2] | cell viability [3] | cell viability [4] | cell viability [5] | cell viability [6] | cell viability [7] | cell viability [8] | cell viability [9] | cell viability [10] | cell viability [11] | cell viability [12] | cell viability [13] | cell viability [14] | cell viability [15] | cell viability [16] | cell viability [17] | cell viability [18] | cell viability [19] | cell viability [20] | cell viability [21] | cell viability [22] | cell viability [23] | cell viability [24] | cell viability [25] | cell viability [26] | cell viability [27] | cell viability [28] | cell viability [29] | cell viability [30] | cell viability [31] | cell viability [32] | cell viability [33]
CO/N=C(/C(=O)N[C@@H]1C(=O)N2C(C(=O)O)=C(CSC(=O)c3ccco3)CS[C@H]12)c1csc(N)n1 | 100% | 108% | 112% | 119% | 109% | 111% | 116% | 118% | 113% | 109% | 110% | 98.1% | 100% | 117% | 107% | 105% | 106% | 98.6% | 104% | 98.9% | 103% | 96.2% | 95.6% | 104% | 112% | 108% | 112% | 109% | 104% | 103% | 102% | 107% | 104%
COC1=CC=C(C=C1O)C/2=C/C(=O)C3=C(O2)C=C(O[C@@H]4O[C@H](CO[C@@H]5O[C@@H](C)[C@H](O)[C@@H](O)[C@H]5O)[C@@H](O)[C@H](O)[C@H]4O)C=C3O | 108% | 112% | 121% | 121% | 115% | 116% | 118% | 118% | 116% | 123% | 122% | 113% | 113% | 118% | 119% | 137% | 116% | 126% | 115% | 123% | 113% | 131% | 116% | 117% | 117% | 125% | 122% | 125% | 126% | 130% | 118% | 121% | 127%
O=c1[nH]c(=O)n(C2CCCO2)cc1F (configuration not stated) | 122% | 124% | 126% | 125% | 125% | 124% | 123% | 123% | 112% | 110% | 116% |  |  |  |  |  |  |  |  |  |  |  | 88.6% | 126% | 120% | 128% | 130% | 120% | 122% | 121% | 119% | 108% | 115%
CN(C)CCN1C(=O)c2cccc3cc(N)cc(c23)C1=O | 104% | 113% | 108% | 109% | 111% | 114% | 115% | 113% | 104% | 74.8% | 7.88% | 101% | 113% | 107% | 113% | 122% | 116% | 125% | 102% | 92.4% | 54.7% | 5.84% | 105% | 112% | 108% | 102% | 118% | 130% | 120% | 101% | 89.2% | 77.9% | 11.8%
CN1CCN(CCCN2c3ccccc3Sc3ccc(C(F)(F)F)cc32)CC1 | 100% | 105% | 105% | 108% | 106% | 111% | 117% | 119% | 111% | 42% | 12.4% | 101% | 108% | 109% | 109% | 119% | 119% | 113% | 116% | 112% | 34.1% | 13.8% | 94.8% | 105% | 99.6% | 104% | 106% | 105% | 112% | 123% | 115% | 93.8% | 39.4%
CC(C)(C)[C@H](NC(=O)c1ccc(N)c(Cl)c1)C(=O)N1CCC[C@H]1C(=O)N[C@H](C#N)CC(=O)O | 121% | 126% | 123% | 127% | 131% | 127% | 130% | 126% | 32.8% | 14.4% | 10.8% | 116% | 124% | 130% | 133% | 126% | 139% | 133% | 133% | 49.9% | 22.6% | 15.5% | 108% | 123% | 121% | 133% | 131% | 130% | 133% | 127% | 102% | 52.1% | 16.7%
CC(C)OC1=CC=C2C(=C1)O\C=C(/C2=O)C3=CC=CC=C3 | 118% | 126% | 122% | 128% | 120% | 119% | 124% | 117% | 113% | 118% | 112% | 123% | 118% | 127% | 128% | 131% | 122% | 121% | 123% | 115% | 110% | 113% | 127% | 121% | 122% | 116% | 132% | 110% | 122% | 115% | 119% | 92.4% | 110%
N[S+](=O)([O-])OC[C@@H]1C[C@@H](n2ccc3c(N[C@H]4CCc5ccccc54)ncnc32)C[C@@H]1O | 95.1% | 102% | 110% | 102% | 113% | 118% | 116% | 82.2% | 38.3% | 16.1% | 12.7% | 107% | 105% | 107% | 126% | 108% | 120% | 116% | 61.5% | 31.2% | 9.99% | 8.16% | 97.4% | 111% | 106% | 110% | 98.2% | 106% | 100% | 54.1% | 34.4% | 12.3% | 11.2%
C[C@@]1(C(=O)Nc2ccc(F)nc2)CCCN1c1nc(Nc2cc(C3CC3)[nH]n2)c2cccn2n1 | 103% | 109% | 111% | 112% | 114% | 112% | 117% | 114% | 11.6% | 15.1% | 18.6% | 119% | 116% | 130% | 113% | 124% | 120% | 124% | 116% | 21.9% | 23.2% | 27.5% | 107% | 122% | 135% | 121% | 129% | 126% | 131% | 121% | 32.2% | 41% | 43%
CCOC(=O)Nc1ccc(NCc2ccc(F)cc2)nc1N | 114% | 114% | 110% | 113% | 120% | 117% | 109% | 105% | 96.5% | 94.6% | 107% | 107% | 116% | 116% | 125% | 118% | 111% | 110% | 102% | 91% | 108% | 99.8% | 115% | 101% | 101% | 104% | 111% | 111% | 112% | 103% | 104% | 101% | 100%
CCOc1cc(CC(=O)N[C@@H](CC(C)C)c2ccccc2N2CCCCC2)ccc1C(=O)O | 113% | 124% | 116% | 129% | 130% | 125% | 129% | 111% | 12.2% | 13.3% | 13.4% | 110% | 130% | 119% | 137% | 124% | 127% | 135% | 120% | 16.4% | 17.6% | 19.6% |  |  |  |  |  |  |  |  |  |  | 
COc1cc(O)c2c(c1)C(=O)c1cc(C)cc(O)c1C2=O | 124% | 120% | 122% | 118% | 122% | 119% | 112% | 114% | 110% | 98.9% | 41.7% | 121% | 118% | 121% | 119% | 121% | 116% | 113% | 113% | 120% | 97.6% | 45.2% |  |  |  |  |  |  |  |  |  |  | 
NC/1=N/C(=O)N(/C=N1)[C@@H]2O[C@H](CO)[C@@H](O)[C@H]2O | 108% | 104% | 102% | 107% | 85.2% | 114% | 104% | 109% | 77% | 55.1% | 22.6% | 107% | 102% | 102% | 98.7% | 88.1% | 113% | 104% | 107% | 91.1% | 59% | 43.2% | 97.1% | 107% | 114% | 116% | 94.7% | 103% | 105% | 104% | 89.6% | 56% | 26.8%
CC/1=C(/N2[C@H](SC1)[C@H](NC(=O)C(N)C3=CC=CC=C3)C2=O)C(O)=O (some centres not stated) | 119% | 122% | 129% | 133% | 136% | 135% | 133% | 136% | 144% | 136% | 138% |  |  |  |  |  |  |  |  |  |  |  |  |  |  |  |  |  |  |  |  |  | 
OCc1ccc(-c2ccc(-c3ccc(CO)s3)o2)s1 | 116% | 116% | 106% | 116% | 101% | 105% | 102% | 106% | 98% | 97.8% | 87.3% |  |  |  |  |  |  |  |  |  |  |  | 118% | 123% | 130% | 125% | 118% | 109% | 104% | 95.4% | 96.3% | 91% | 78.6%
CC1(C)C(N(O)C(=O)Nc2ccc(Cl)cc2)N(c2ccc(Cl)cc2)C(=O)N1CC(=O)N/N=C/C=C/c1ccc([N+](=O)[O-])o1 (configuration not stated) | 112% | 109% | 111% | 113% | 115% | 104% | 105% | 103% | 99.4% | 103% | 65.6% | 108% | 105% | 105% | 110% | 113% | 107% | 110% | 106% | 102% | 100% | 52.4% | 115% | 104% | 115% | 111% | 109% | 113% | 104% | 103% | 103% | 91.3% | 49%
